The record followed here is the supplement of paper PMC11208160.

The nature of this data set: recombinant UMI read abundance after kanamycin selection (control-corrected) (log10(CPM+1)); higher = more efficient recombination; extreme values may be limits of the assay; sequences stand for … in AGTGCAGAGAAAATCGGCCAGTTTTCTCTGCCTGCAGTCCGCATGCCGTGGGACCCCTTGGGTTCTAACCTGTTGCCTAGATTTATGCAGCGGACTGCCTTTCTCCCAAAGTGATAAACCGG…AGGTTGGTTTCACT; site = the 11-nt donor. The method, boiled down: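 In Escherichia coli, a pool of donor and donor-binding-loop pairs, each with a 12-nt UMI, was tested for the IS621 bridge recombinase. Plating was on IPTG (0.07 mM) plus kanamycin, or without selection, in two replicates. Recombinant UMIs were amplified by PCR across the donor–target junction and sequenced, and counts were reported as log10(CPM+1) after averaging and control-derived scaling.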
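Further: IS621 bridge recombinase in Escherichia coli cells against a fixed T5 target plasmid.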

For “TAGGCTGCATGGACCGGTTTTCCCGGTAATCCGTATTTGGT (site TAGGCTGCTAC)”, the “recombinant UMI read abundance (log10)” value came out at 0.811.

For “TAGGGATCATGGACCGGTTTTCCCGGTAATCCGTATTTGCG (site TAGGAATCTCG)”, the “recombinant UMI read abundance (log10)” value worked out at 2.07.

As for “TAGGGATCATGGACCGGTTTTCCCGGTAATCCGTATTTGCG (site TAGGCATCTCG)”, the “recombinant UMI read abundance (log10)” value is 0.735.

As to “TAGGGATCATGGACCGGTTTTCCCGGTAATCCGTATTTGCG (site TAGGGATCTCG)”, the “recombinant UMI read abundance (log10)” value stood at 2.78.

Take “TAGGGATCATGGACCGGTTTTCCCGGTAATCCGTATTTGCG (site TAGGTATCTCG)”: the “recombinant UMI read abundance (log10)” value worked out at 1.27.

As to “TAGGGATCATGGACCGGTTTTCCCGGTAATCCGTATTTGCT (site TAGGGATCTAG)”, the “recombinant UMI read abundance (log10)” value came to 2.31.

Regarding “TAGGGGACATGGACCGGTTTTCCCGGTAATCCGTATTTGTT (site TAGGGGACTAA)”, the “recombinant UMI read abundance (log10)” value stood at 1.75.

Regarding “TAGGGTGCATGGACCGGTTTTCCCGGTAATCCGTATTTGAC (site TAGGGTGCTGT)”, the “recombinant UMI read abundance (log10)” value came out at 2.6.

As to “TAGGGTGCATGGACCGGTTTTCCCGGTAATCCGTATTTGCC (site TAGGGTGCTGG)”, the “recombinant UMI read abundance (log10)” value was 2.58.

As to “TAGGTTACATGGACCGGTTTTCCCGGTAATCCGTATTTGAT (site TAGGTTACTAT)”, the “recombinant UMI read abundance (log10)” value turned out to be 1.79.

Turning to “TAGGTTGCATGGACCGGTTTTCCCGGTAATCCGTATTTGGT (site TAGGTTGCTAC)”, the “recombinant UMI read abundance (log10)” value was 1.27.

Turning to “TAGTCTTCATGGACCGGTTTTCCCGGTAATCCGTATTTGGT (site TAGACTTCTAC)”, the “recombinant UMI read abundance (log10)” value came to 0.017.

Turning to “TAGTCTTCATGGACCGGTTTTCCCGGTAATCCGTATTTGGT (site TAGCCTTCTAC)”, the “recombinant UMI read abundance (log10)” value was determined as 0.322.

Consider “TAGTCTTCATGGACCGGTTTTCCCGGTAATCCGTATTTGGT (site TAGGCTTCTAC)”, for which the “recombinant UMI read abundance (log10)” value stood at 0.012.

“TAGTCTTCATGGACCGGTTTTCCCGGTAATCCGTATTTGGT (site TAGTCTTCTAC)”: the “recombinant UMI read abundance (log10)” value stood at 0.376.

Turning to “TAGTGTACATGGACCGGTTTTCCCGGTAATCCGTATTTGGT (site TAGTGTACTAC)”, the “recombinant UMI read abundance (log10)” value stood at 0.534.

In the case of “TAGTTGACATGGACCGGTTTTCCCGGTAATCCGTATTTGCT (site TAATTGACTAG)”, the “recombinant UMI read abundance (log10)” value came to 1.17.

On to “TAGTTGACATGGACCGGTTTTCCCGGTAATCCGTATTTGCT (site TACTTGACTAG)”, for which the “recombinant UMI read abundance (log10)” value stood at 0.55.

Take “TAGTTGACATGGACCGGTTTTCCCGGTAATCCGTATTTGCT (site TAGTTGACTAG)”: the “recombinant UMI read abundance (log10)” value was 2.13.

In the case of “TAGTTGACATGGACCGGTTTTCCCGGTAATCCGTATTTGCT (site TATTTGACTAG)”, the “recombinant UMI read abundance (log10)” value is 0.0101.

Turning to “TATAAGACATGGACCGGTTTTCCCGGTAATCCGTATTTGAC (site TATAAGACTGT)”, the “recombinant UMI read abundance (log10)” value turned out to be 2.01.

On to “TATAATTCATGGACCGGTTTTCCCGGTAATCCGTATTTGAC (site TATAATTCTGT)”, for which the “recombinant UMI read abundance (log10)” value is 0.209.

In the case of “TATAGCCCATGGACCGGTTTTCCCGGTAATCCGTATTTGTA (site TATAGCCCTTA)”, the “recombinant UMI read abundance (log10)” value came out at 0.181.

As for “TATAGCGCATGGACCGGTTTTCCCGGTAATCCGTATTTGTG (site TATAGCGCTCA)”, the “recombinant UMI read abundance (log10)” value was determined as 0.205.

As for “TATAGGACATGGACCGGTTTTCCCGGTAATCCGTATTTGAT (site TATAGGACTAT)”, the “recombinant UMI read abundance (log10)” value is 1.11.

Consider “TATATGGCATGGACCGGTTTTCCCGGTAATCCGTATTTGTG (site TATATGGCTCA)”, for which the “recombinant UMI read abundance (log10)” value worked out at 0.368.

“TATATGGCATGGACCGGTTTTCCCGGTAATCCGTATTTGTG (site TATCTGGCTCA)”: the “recombinant UMI read abundance (log10)” value came out at 0.00271.

Take “TATATGGCATGGACCGGTTTTCCCGGTAATCCGTATTTGTG (site TATGTGGCTCA)”: the “recombinant UMI read abundance (log10)” value was 0.00727.

On to “TATATGGCATGGACCGGTTTTCCCGGTAATCCGTATTTGTG (site TATTTGGCTCA)”, for which the “recombinant UMI read abundance (log10)” value was 0.0941.

For the sequence “TATATTGCATGGACCGGTTTTCCCGGTAATCCGTATTTGTC (site TATATTGCTGA)”, the “recombinant UMI read abundance (log10)” value worked out at 0.

With “TATCCCGCATGGACCGGTTTTCCCGGTAATCCGTATTTGCC (site TATCCCGCTGG)”, the “recombinant UMI read abundance (log10)” value worked out at 1.79.

Consider “TATCCTGCATGGACCGGTTTTCCCGGTAATCCGTATTTGAC (site TATCCTGCTGT)”, for which the “recombinant UMI read abundance (log10)” value turned out to be 0.

As for “TATCGAACATGGACCGGTTTTCCCGGTAATCCGTATTTGTT (site TATCGAACTAA)”, the “recombinant UMI read abundance (log10)” value came out at 0.00888.

Consider “TATCTCACATGGACCGGTTTTCCCGGTAATCCGTATTTGAC (site TATCTCACTGT)”, for which the “recombinant UMI read abundance (log10)” value was 2.11.

In the case of “TATCTTTCATGGACCGGTTTTCCCGGTAATCCGTATTTGAT (site TATCTTTCTAT)”, the “recombinant UMI read abundance (log10)” value stood at 0.

Turning to “TATGCCACATGGACCGGTTTTCCCGGTAATCCGTATTTGTA (site TATGCCACTTA)”, the “recombinant UMI read abundance (log10)” value came to 0.598.

Regarding “TATGGCCCATGGACCGGTTTTCCCGGTAATCCGTATTTGAT (site TATGGCCCTAT)”, the “recombinant UMI read abundance (log10)” value came out at 0.0149.

Regarding “TATGTAGCATGGACCGGTTTTCCCGGTAATCCGTATTTGTT (site TATGTAGCTAA)”, the “recombinant UMI read abundance (log10)” value worked out at 1.23.

In the case of “TATTCAACATGGACCGGTTTTCCCGGTAATCCGTATTTGCA (site GGGAACGCTAA)”, the “recombinant UMI read abundance (log10)” value turned out to be 0.00333.

Regarding “TATTCAACATGGACCGGTTTTCCCGGTAATCCGTATTTGTG (site TATTCAACTCA)”, the “recombinant UMI read abundance (log10)” value is 0.011.

“TATTGAGCATGGACCGGTTTTCCCGGTAATCCGTATTTGGG (site TAATGAGCTCC)”: the “recombinant UMI read abundance (log10)” value was determined as 0.0665.

“TATTGAGCATGGACCGGTTTTCCCGGTAATCCGTATTTGGG (site TACTGAGCTCC)”: the “recombinant UMI read abundance (log10)” value worked out at 0.0155.

Take “TATTGAGCATGGACCGGTTTTCCCGGTAATCCGTATTTGGG (site TAGTGAGCTCC)”: the “recombinant UMI read abundance (log10)” value stood at 0.0187.

In the case of “TATTGAGCATGGACCGGTTTTCCCGGTAATCCGTATTTGGG (site TATTGAGCTCC)”, the “recombinant UMI read abundance (log10)” value turned out to be 0.

With “TATTGATCATGGACCGGTTTTCCCGGTAATCCGTATTTGTG (site TATTGATCTCA)”, the “recombinant UMI read abundance (log10)” value is 0.805.

On to “TATTGTTCATGGACCGGTTTTCCCGGTAATCCGTATTTGTG (site TATTGTTCTCA)”, for which the “recombinant UMI read abundance (log10)” value was determined as 0.00773.

As to “TATTTGACATGGACCGGTTTTCCCGGTAATCCGTATTTGCT (site TAATTGACTAG)”, the “recombinant UMI read abundance (log10)” value was 1.9.

Turning to “TATTTGACATGGACCGGTTTTCCCGGTAATCCGTATTTGCT (site TACTTGACTAG)”, the “recombinant UMI read abundance (log10)” value was 0.882.

Turning to “TATTTGACATGGACCGGTTTTCCCGGTAATCCGTATTTGCT (site TAGTTGACTAG)”, the “recombinant UMI read abundance (log10)” value was 0.852.

For the sequence “TATTTGACATGGACCGGTTTTCCCGGTAATCCGTATTTGCT (site TATTTGACTAG)”, the “recombinant UMI read abundance (log10)” value turned out to be 2.54.

With “TATTTGACATGGACCGGTTTTCCCGGTAATCCGTATTTGTG (site TATTTGACTCA)”, the “recombinant UMI read abundance (log10)” value was determined as 0.0179.

As to “TATTTGACATGGACCGGTTTTCCCGGTAATCCGTATTTGTG (site TATTTGCCTCA)”, the “recombinant UMI read abundance (log10)” value came out at 0.00551.

For “TATTTGACATGGACCGGTTTTCCCGGTAATCCGTATTTGTG (site TATTTGGCTCA)”, the “recombinant UMI read abundance (log10)” value stood at 0.00542.

Consider “TATTTGACATGGACCGGTTTTCCCGGTAATCCGTATTTGTG (site TATTTGTCTCA)”, for which the “recombinant UMI read abundance (log10)” value was 0.0134.

With “TCAAACTCATGGACCGGTTTTCCCGGTAATCCGTATTTGCA (site TCAAACTCTTG)”, the “recombinant UMI read abundance (log10)” value was 1.55.

For “TCAAACTCATGGACCGGTTTTCCCGGTAATCCGTATTTGCA (site TCACACTCTTG)”, the “recombinant UMI read abundance (log10)” value was found to be 1.25.

With “TCAAACTCATGGACCGGTTTTCCCGGTAATCCGTATTTGCA (site TCAGACTCTTG)”, the “recombinant UMI read abundance (log10)” value turned out to be 0.

“TCAAACTCATGGACCGGTTTTCCCGGTAATCCGTATTTGCA (site TCATACTCTTG)”: the “recombinant UMI read abundance (log10)” value worked out at 1.92.

Turning to “TCAAAGCCATGGACCGGTTTTCCCGGTAATCCGTATTTGAT (site TCAAAGCCTAT)”, the “recombinant UMI read abundance (log10)” value stood at 0.324.

“TCAACCCCATGGACCGGTTTTCCCGGTAATCCGTATTTGTG (site TCAACCCCTCA)”: the “recombinant UMI read abundance (log10)” value is 0.00442.

In the case of “TCAAGTTCATGGACCGGTTTTCCCGGTAATCCGTATTTGTC (site TCAAGTTCTGA)”, the “recombinant UMI read abundance (log10)” value stood at 2.

For “TCAATCTCATGGACCGGTTTTCCCGGTAATCCGTATTTGGT (site TCAATCTCTAC)”, the “recombinant UMI read abundance (log10)” value turned out to be 1.11.

Turning to “TCAATTGCATGGACCGGTTTTCCCGGTAATCCGTATTTGCG (site TCAATTGCTCG)”, the “recombinant UMI read abundance (log10)” value was determined as 1.52.

In the case of “TCACCGCCATGGACCGGTTTTCCCGGTAATCCGTATTTGGG (site TCACCGCCTCC)”, the “recombinant UMI read abundance (log10)” value amounted to 0.0301.

Take “TCACCTTCATGGACCGGTTTTCCCGGTAATCCGTATTTGTT (site TCACCTTCTAA)”: the “recombinant UMI read abundance (log10)” value was 0.00377.

“TCACGACCATGGACCGGTTTTCCCGGTAATCCGTATTTGCT (site TCACGACCTAG)”: the “recombinant UMI read abundance (log10)” value turned out to be 0.

Consider “TCACGAGCATGGACCGGTTTTCCCGGTAATCCGTATTTGCC (site TCACGAGCTGG)”, for which the “recombinant UMI read abundance (log10)” value was found to be 0.952.

Take “TCACGCGCATGGACCGGTTTTCCCGGTAATCCGTATTTGAA (site TCACGCGCTTT)”: the “recombinant UMI read abundance (log10)” value stood at 1.05.
